# Values quoted from earlier work, collected in publication PMC2109944 (The Journal of Cell Biology, 1977).
# Tests used:
# human fibroblasts = settings: 125I-epidermal growth factor
# [1] = system: dissociated anterior pituitary cells
# mouse melanoma cells = settings: binding at low temperature, no prefixation
substance,measurement,setting,value
"epidermal growth factor: 125I-labelled epidermal growth factor, literature comparison",internalization of hormone-bearing receptors,human fibroblasts,internalized within hours of the binding taking place
luteinizing hormone-releasing hormone [LHRH],time to LH release by exocytosis after stimulation,[1],≤ 1 min
same,desensitization after short-term exposure,[1]; short-term exposure,refractory to further stimulation by the peptide
a-MSH,initial distribution of MSH receptor sites,mouse melanoma cells,initially distributed at one pole of the cell over the Golgi area
